Non-standard residues stand in square brackets, D forms with d. Residues, ends and D or L forms follow the SMILES beside them. *: point of attachment. Sta = CC(C)C[C@H](N)[C@@H](O)CC(=O)O; Isovaleryl = CC(C)CC(=O)*
How the values were obtained:
XMRV PR [1] = target: T1, XMRV PR (Xenotropic MuLV-related virus VP62, UniProt A1Z651); assay: HPLC-based cleavage assay with peptide RSLLY-PALTP; format: biochemical; conditions: read-out: XMRV PR Ki; cited from earlier work
XMRV PR [2] = target: T1, XMRV PR; conditions: PDB 3SM1; cited from earlier work
XMRV PR [3] = target: T1, XMRV PR; conditions: previous study; cited from earlier work
HIV-1 PR = HIV-1 PR (Human immunodeficiency virus type 1 group M subtype B, UniProt P04585, C555A/C583A/L521I/L551I/Q495K); assay: Urea dissociation of HIV-1 PR; format: physicochemical; conditions: half-maximal velocity; urea 0–4.0 M, 5.5 nM HIV-1 PR, 0.3 mM substrate, HPLC

T1 sequence (A1Z651 533-657): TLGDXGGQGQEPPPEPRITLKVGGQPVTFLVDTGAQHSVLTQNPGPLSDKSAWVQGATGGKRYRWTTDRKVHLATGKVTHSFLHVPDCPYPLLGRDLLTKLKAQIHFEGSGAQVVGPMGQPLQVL

## CC(C)CC(=O)N[C@H](C(=O)N[C@H](C(=O)N[C@@H](CC(C)C)[C@@H](O)CC(=O)N[C@@H](C)C(=O)N[C@@H](CC(C)C)[C@@H](O)CC(=O)O)C(C)C)C(C)C [Pepstatin A, pepstatin A (isovaleryl-Val-Val-Sta-Ala-Sta)] (Isovaleryl-VV[Sta]A[Sta]-OH)
XMRV PR [1]
  Ki: 1440 nM

## CC(C)CC(=O)N[C@H](C(=O)N[C@H](C(=O)N[C@@H](CC(C)C)[C@@H](O)CC(=O)N[C@@H](C)C(=O)N[C@@H](CC(C)C)[C@@H](O)CC(=O)O)C(C)C)C(C)C [Pepstatin A, pepstatin A] (Isovaleryl-VV[Sta]A[Sta]-OH)
XMRV PR [2]
  binding mode to XMRV PR (crystal structure): two inhibitor molecules binding to the enzyme, leaving the catalytic water in place
XMRV PR [3]
  Inhibition of XMRV PR (in words): only a very weak inhibitor of XMRV PR

## HIV-1 PR: Purified HIV-1 PR, containing stabilizing mutations (Q7K, L33I, L63I, C67A and C95A)
HIV-1 PR
  Urea dissociation (UC50): 1.47 M

— publication PMC6290463 (The FEBS journal, 2012)
